In PubChem BioAssay AID2060604 (Molecular Pharmacology Branch, DTP, NCI, 2025):

System: 379773-124-R-J2-PDC complex spheroids, viability % test/control
Experiment: Anticancer human tumor 379773-124-R-J2-PDC patient-derived endometrial carcinoma cell line growth inhibition [CLK]
Settings: for IC50: curve of first compound; for viability, T/C: stronger effect = lower value
In short: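 Patient-derived tumor cells grown as complex spheroids with HUVEC endothelial cells and mesenchymal stem cells, treated with drug combinations. Concentrations descend in half-log steps from near clinical Cmax, or from 10 microM if Cmax unknown.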

[1] = second compound 0.0316 µM, first compound 0.0316 µM
[2] = second compound 0.0316 µM, first compound 0.1 µM
[3] = second compound 0.0316 µM, first compound 0.316 µM
[4] = second compound 0.0316 µM, first compound 1 µM
[5] = second compound 0.1 µM, first compound 0.0316 µM
[6] = second compound 0.1 µM, first compound 0.1 µM
[7] = second compound 0.1 µM, first compound 0.316 µM
[8] = second compound 0.1 µM, first compound 1 µM
[9] = second compound 0.316 µM, first compound 0.0316 µM
[10] = second compound 0.316 µM, first compound 0.1 µM
[11] = second compound 0.316 µM, first compound 0.316 µM
[12] = second compound 0.316 µM, first compound 1 µM
[13] = second compound 1 µM, first compound 0.0316 µM
[14] = second compound 1 µM, first compound 0.1 µM
[15] = second compound 1 µM, first compound 0.316 µM
[16] = second compound 1 µM, first compound 1 µM
[17] = second compound 3.16 µM, first compound 0.0316 µM
[18] = second compound 3.16 µM, first compound 0.1 µM
[19] = second compound 3.16 µM, first compound 0.316 µM
[20] = second compound 3.16 µM, first compound 1 µM
[21] = second compound 10 µM, first compound 0.0316 µM
[22] = second compound 10 µM, first compound 0.1 µM
[23] = second compound 10 µM, first compound 0.316 µM
[24] = second compound 10 µM, first compound 1 µM
[25] = second compound 0.0316 µM, first compound 0.00316 µM
[26] = second compound 0.0316 µM, first compound 0.01 µM
[27] = second compound 0.1 µM, first compound 0.00316 µM
[28] = second compound 0.1 µM, first compound 0.01 µM
[29] = second compound 0.316 µM, first compound 0.00316 µM
[30] = second compound 0.316 µM, first compound 0.01 µM
[31] = second compound 1 µM, first compound 0.00316 µM
[32] = second compound 1 µM, first compound 0.01 µM
[33] = second compound 3.16 µM, first compound 0.00316 µM
[34] = second compound 3.16 µM, first compound 0.01 µM
[35] = second compound 10 µM, first compound 0.00316 µM
[36] = second compound 10 µM, first compound 0.01 µM
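Note: compound exposure lasted seven days before the viability readout.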
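Throughout, for viability, T/C: 100% = DMSO vehicle control wells.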

For `CC(Nc1ccc2c(c1)OCCn1cc(N3C(=O)OCC3C(F)F)nc1-2)C(N)=O` (stereo unspecified) + CN1CCN(c2cc(C(=O)Nc3cc4cc(-c5cnn(C)c5)ccc4cn3)ccn2)CC1, the IC50 (second compound 0.0316 µM) was > 10000 nM, the IC50 (second compound 0.1 µM) was 8870 nM and the IC50 (second compound 0.316 µM) was < 31.6 nM. The IC50 (second compound 1 µM) was < 31.6 nM, the IC50 (second compound 3.16 µM) was < 31.6 nM and the IC50 (second compound 10 µM) was < 31.6 nM. For the same compound, the viability, T/C [1] was 85.2%, the viability, T/C [2] was 89.8% and the viability, T/C [3] was 69.3%. For the same compound, the viability, T/C [4] was 89.3%, the viability, T/C (second compound 0.0316 µM, first compound 3.16 µM) was 68.6% and the viability, T/C (second compound 0.0316 µM, first compound 10 µM) was 62.5%. For the same compound, the viability, T/C [5] was 92.4%, the viability, T/C [6] was 81.8% and the viability, T/C [7] was 87.2%. For the same compound, the viability, T/C [8] was 68.9%, the viability, T/C (second compound 0.1 µM, first compound 3.16 µM) was 84.2% and the viability, T/C (second compound 0.1 µM, first compound 10 µM) was 46.2%. The viability, T/C [9] was 19.4%, the viability, T/C [10] was 22.5% and the viability, T/C [11] was 21.1%. It also gave a viability, T/C [12] of 18.9%, a viability, T/C (second compound 0.316 µM, first compound 3.16 µM) of 22.9% and a viability, T/C (second compound 0.316 µM, first compound 10 µM) of 11.4%. The viability, T/C [13] was 0.15%, the viability, T/C [14] was 0.14% and the viability, T/C [15] was 0.75%. For the same compound, the viability, T/C [16] was 0.56%, the viability, T/C (second compound 1 µM, first compound 3.16 µM) was 0.08% and the viability, T/C (second compound 1 µM, first compound 10 µM) was 0.1%. It also gave a viability, T/C [17] of 0.84%, a viability, T/C [18] of 0.13% and a viability, T/C [19] of 0.14%. For the same compound, the viability, T/C [20] was 0.52%, the viability, T/C (second compound 3.16 µM, first compound 3.16 µM) was 0.43% and the viability, T/C (second compound 3.16 µM, first compound 10 µM) was 0.48%. For the same compound, the viability, T/C [21] was 0.1%, the viability, T/C [22] was 0.12% and the viability, T/C [23] was 0.71%. The viability, T/C [24] was 1.07%, the viability, T/C (second compound 10 µM, first compound 3.16 µM) was 0.4% and the viability, T/C (second compound 10 µM, first compound 10 µM) was 0.19%.
`CCN1CCN(Cc2ccc(Nc3ncc(F)c(-c4cc(F)c5nc(C)n(C(C)C)c5c4)n3)nc2)CC1` + CN1CCN(c2cc(C(=O)Nc3cc4cc(-c5cnn(C)c5)ccc4cn3)ccn2)CC1 was tested, and the IC50 (second compound 0.0316 µM) was > 1000 nM, the IC50 (second compound 0.1 µM) was > 1000 nM and the IC50 (second compound 0.316 µM) was < 3.16 nM. The IC50 (second compound 1 µM) was < 3.16 nM, the IC50 (second compound 3.16 µM) was < 3.16 nM and the IC50 (second compound 10 µM) was < 3.16 nM. The viability, T/C [25] was 90.3%, the viability, T/C [26] was 85.3% and the viability, T/C [1] was 82.2%. It also gave a viability, T/C [2] of 98%, a viability, T/C [3] of 86% and a viability, T/C [4] of 79.6%. It also gave a viability, T/C [27] of 101%, a viability, T/C [28] of 76.5% and a viability, T/C [5] of 76.9%. The viability, T/C [6] was 80.7%, the viability, T/C [7] was 78.1% and the viability, T/C [8] was 72%. It also gave a viability, T/C [29] of 32.4%, a viability, T/C [30] of 26% and a viability, T/C [9] of 30.9%. It also gave a viability, T/C [10] of 30.3%, a viability, T/C [11] of 39.7% and a viability, T/C [12] of 32.5%. It also gave a viability, T/C [31] of 0.18%, a viability, T/C [32] of 0.18% and a viability, T/C [13] of 1.15%. For the same compound, the viability, T/C [14] was 0.3%, the viability, T/C [15] was 0.96% and the viability, T/C [16] was 2.04%. For the same compound, the viability, T/C [33] was 0.11%, the viability, T/C [34] was 0.15% and the viability, T/C [17] was 0.25%. It also gave a viability, T/C [18] of 0.83%, a viability, T/C [19] of 0.11% and a viability, T/C [20] of 0.44%. For the same compound, the viability, T/C [35] was 1.88%, the viability, T/C [36] was 1.3% and the viability, T/C [21] was 0.17%. For the same compound, the viability, T/C [22] was 1.36%, the viability, T/C [23] was 0.15% and the viability, T/C [24] was 0.16%.
With `COc1c(OCCCN2CCOCC2)ccc2c3n(c(=NC(=O)c4cnc(N)nc4)nc12)CCN3` + CN1CCN(c2cc(C(=O)Nc3cc4cc(-c5cnn(C)c5)ccc4cn3)ccn2)CC1 the IC50 (second compound 0.0316 µM) was 70.5 nM, the IC50 (second compound 0.1 µM) was 50.6 nM and the IC50 (second compound 0.316 µM) was < 3.16 nM. The IC50 (second compound 1 µM) was < 3.16 nM, the IC50 (second compound 3.16 µM) was < 3.16 nM and the IC50 (second compound 10 µM) was < 3.16 nM. The viability, T/C [25] was 94.2%, the viability, T/C [26] was 92.8% and the viability, T/C [1] was 87.6%. The viability, T/C [2] was 33.5%, the viability, T/C [3] was 10.9% and the viability, T/C [4] was 2.85%. For the same compound, the viability, T/C [27] was 89.6%, the viability, T/C [28] was 74.7% and the viability, T/C [5] was 65.4%. It also gave a viability, T/C [6] of 31.4%, a viability, T/C [7] of 6.86% and a viability, T/C [8] of 2.02%. The viability, T/C [29] was 21%, the viability, T/C [30] was 23.7% and the viability, T/C [9] was 18.5%. For the same compound, the viability, T/C [10] was 6.99%, the viability, T/C [11] was 3.33% and the viability, T/C [12] was 1.61%. It also gave a viability, T/C [31] of 0.15%, a viability, T/C [32] of 0.35% and a viability, T/C [13] of 0.15%. It also gave a viability, T/C [14] of 0.11%, a viability, T/C [15] of 0.09% and a viability, T/C [16] of 0.08%. The viability, T/C [33] was 0.07%, the viability, T/C [34] was 0.45% and the viability, T/C [17] was 0.29%. For the same compound, the viability, T/C [18] was 0.11%, the viability, T/C [19] was 0.11% and the viability, T/C [20] was 0.1%. It also gave a viability, T/C [35] of 0.16%, a viability, T/C [36] of 0.13% and a viability, T/C [21] of 0.92%. For the same compound, the viability, T/C [22] was 0.79%, the viability, T/C [23] was 0.79% and the viability, T/C [24] was 0.15%.
